The values below are quoted from earlier work in patent US20230131493A1, “METHODS OF TREATING AGITATION ASSOCIATED WITH ALZHEIMER'S DISEASE” (Avanir Phrmaceuticals Inc., priority 2021, published 2023).

Series [1] has as its target sigma-1 receptor (Homo sapiens, UniProt Q99720).
The conditions of series [2]: a P-glycoprotein substrate.

Each structure is given as a SMILES string. Structures can show the parent of a compound that is named as a salt.

sigma-1 receptor, sequence (Q99720 whole entry, species assumed): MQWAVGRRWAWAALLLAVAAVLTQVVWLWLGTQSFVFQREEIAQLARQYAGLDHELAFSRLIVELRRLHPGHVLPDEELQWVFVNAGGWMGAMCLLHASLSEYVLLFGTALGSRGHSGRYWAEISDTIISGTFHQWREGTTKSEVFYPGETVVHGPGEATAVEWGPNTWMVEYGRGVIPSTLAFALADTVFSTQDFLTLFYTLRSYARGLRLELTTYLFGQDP

`[2H]C([2H])([2H])Oc1ccc2c(c1)[C@]13CCCC[C@@H]1[C@H](C2)N(C([2H])([2H])[2H])CC3` [d6-DM, deuterated [d6]-dextromethorphan hydrobromide]: the receptor binding result in series [1] is “binds to the sigma-1 receptor”.

Consider `C=C[C@H]1CN2CC[C@H]1C[C@@H]2[C@@H](O)c1ccnc2ccc(OC)cc12.C=C[C@H]1CN2CC[C@H]1C[C@@H]2[C@@H](O)c1ccnc2ccc(OC)cc12.O=S(=O)(O)O` [Quinidine, quinidine sulfate], for which the “serum digoxin levels on concomitant administration with digoxin” value in series [2] is reported as “may be as much as doubled”.
